Several values for one entry are separate records, joined by “and”; a condition that tells them apart may be missing. Equal values may be shown once. Inconclusive results and toxic doses are left out. No stated cut-off is given here; in the data, active means T/C of 150% or more; inactive means T/C below 125%.
Tested on: L1210 leukemia ip in BDF1 mice, survival T/C
Assay: NCI In Vivo Anticancer Drug Screen. Data for tumor model L1210 Leukemia (intraperitoneal) in B6D2F1 (BDF1) mice
Conditions: endpoint: mean survival time, higher = longer survival
Summary of the method: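 In this screen, tumor-bearing mice given compound are compared to those given vehicle, and their survival values are reported as a treated-to-control quotient.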

[1] = dose: 400.0 mg/kg/injection, schedule: Q04DX002 (ip), vehicle: saline with Tween-80
[2] = dose: 100.0 mg/kg/injection, schedule: Q01DX009 (ip), vehicle: saline with Tween-80
[3] = dose: 200.0 mg/kg/injection, schedule: Q01DX009 (ip), vehicle: saline with Tween-80
[4] = dose: 400.0 mg/kg/injection, schedule: Q01DX009 (ip), vehicle: saline with Tween-80
[5] = dose: 25.0 mg/kg/injection, schedule: Q01DX009 (ip), vehicle: Klucel (hydroxypropylcellulose) (HPC)
[6] = dose: 50.0 mg/kg/injection, schedule: Q01DX009 (ip), vehicle: Klucel (hydroxypropylcellulose) (HPC)
[7] = dose: 100.0 mg/kg/injection, schedule: Q01DX009 (ip), vehicle: Klucel (hydroxypropylcellulose) (HPC)
[8] = dose: 100.0 mg/kg/injection, schedule: Q04DX003 (ip), vehicle: Klucel (hydroxypropylcellulose) (HPC)

Measured: T/C

CCOC(=O)C(C(C)=O)C(c1ccc2c(c1)OCO2)C(C(C)=O)C(=O)O (configuration not stated)
inactive: dose: 25.6 mg/kg/injection, schedule: Q04DX002 (ip), vehicle: saline with Tween-80 100 % of control | dose: 64.0 mg/kg/injection, schedule: Q04DX002 (ip), vehicle: saline with Tween-80 96 % of control | dose: 160.0 mg/kg/injection, schedule: Q04DX002 (ip), vehicle: saline with Tween-80 103 % of control | [1] 107 % of control

CC(C)CC(N)C(=O)O (configuration not stated)
inactive: dose: 100.0 mg/kg/injection, schedule: Q01DX001 (ip), vehicle: carboxymethylcellulose (CMC) 87 % of control | dose: 200.0 mg/kg/injection, schedule: Q01DX001 (ip), vehicle: carboxymethylcellulose (CMC) 91 % of control | dose: 400.0 mg/kg/injection, schedule: Q01DX001 (ip), vehicle: carboxymethylcellulose (CMC) 91 % of control

CCN(CCOC(=O)Nc1ccccc1F)c1ccccc1
inactive: [2] 98 % of control | [3] 115 % of control | [4] 112 % of control

O=C(NCCCNC(=O)Nc1cccc(C2=NCCN2)c1)Nc1cccc(C2=NCCN2)c1
inactive: dose: 8.0 mg/kg/injection, schedule: Q01DX Z (ip), vehicle: carboxymethylcellulose (CMC) 104 % of control | dose: 16.0 mg/kg/injection, schedule: Q01DX Z (ip), vehicle: carboxymethylcellulose (CMC) 111 % of control | dose: 32.0 mg/kg/injection, schedule: Q01DX Z (ip), vehicle: carboxymethylcellulose (CMC) 104 % of control | dose: 64.0 mg/kg/injection, schedule: Q01DX Z (ip), vehicle: carboxymethylcellulose (CMC) 94 % of control

O=C(O)c1cc(Cl)ccn1
inactive: [5] 98 % of control | [6] 102 % of control | [7] 101 % of control and 107 % of control

CN1CCC2CCCCC2C1Cc1ccc(Oc2ccc(CC3C4CCCCC4CCN3C)cc2)cc1 (configuration not stated)
inactive: dose: 0.78 mg/kg/injection, schedule: Q04DX002 (ip), vehicle: Klucel (hydroxypropylcellulose) (HPC) 91 % of control | dose: 1.56 mg/kg/injection, schedule: Q04DX002 (ip), vehicle: Klucel (hydroxypropylcellulose) (HPC) 88 % of control | dose: 3.12 mg/kg/injection, schedule: Q04DX002 (ip), vehicle: Klucel (hydroxypropylcellulose) (HPC) 91 % of control

Nc1ncnc(NC2CCCCC2)n1
inactive: dose: 6.25 mg/kg/injection, schedule: Q01DX009 (ip), vehicle: Klucel (hydroxypropylcellulose) (HPC) 100 % of control | dose: 12.5 mg/kg/injection, schedule: Q01DX009 (ip), vehicle: Klucel (hydroxypropylcellulose) (HPC) 94 % of control | [5] 97 % of control and 98 % of control | [6] 111 % of control | [8] 91 % of control | dose: 400.0 mg/kg/injection, schedule: Q04DX003 (ip), vehicle: Klucel (hydroxypropylcellulose) (HPC) 98 % of control

O=C(/C(=C/c1ccccc1)CN1CCOCC1)c1ccccc1
inactive: [8] 96 % of control

CC1CCCCN1C(=O)Nc1ccccc1C(F)(F)F (configuration not stated)
inactive: dose: 100.0 mg/kg/injection, schedule: Q01DX001 (ip), vehicle: saline with Tween-80 96 % of control and 97 % of control | [2] 100 % of control and 119 % of control | dose: 100.0 mg/kg/injection, schedule: Q04DX002 (ip), vehicle: saline with Tween-80 96 % of control and 86 % of control | dose: 100.0 mg/kg/injection, schedule: Q04DX003 (ip), vehicle: saline with Tween-80 99 % of control and 91 % of control | dose: 200.0 mg/kg/injection, schedule: Q01DX001 (ip), vehicle: saline with Tween-80 97 % of control and 100 % of control | [3] 106 % of control and 107 % of control | dose: 200.0 mg/kg/injection, schedule: Q04DX002 (ip), vehicle: saline with Tween-80 96 % of control and 99 % of control | dose: 200.0 mg/kg/injection, schedule: Q04DX003 (ip), vehicle: saline with Tween-80 95 % of control and 101 % of control | dose: 400.0 mg/kg/injection, schedule: Q01DX001 (ip), vehicle: saline with Tween-80 100 % of control and 90 % of control | [4] 93 % of control and 116 % of control | [1] 95 % of control and 100 % of control | dose: 400.0 mg/kg/injection, schedule: Q04DX003 (ip), vehicle: saline with Tween-80 91 % of control

CC(=O)OC1CCC2(C)C(=CCC3C2CCC2(C)C3CC3C(c4ccccc4C)=NN(c4ccccc4)C32C#N)C1 (configuration not stated)
inactive: dose: 12.5 mg/kg/injection, schedule: Q04DX002 (ip), vehicle: Klucel (hydroxypropylcellulose) (HPC) 102 % of control | dose: 25.0 mg/kg/injection, schedule: Q04DX002 (ip), vehicle: Klucel (hydroxypropylcellulose) (HPC) 97 % of control | dose: 50.0 mg/kg/injection, schedule: Q04DX002 (ip), vehicle: Klucel (hydroxypropylcellulose) (HPC) 97 % of control

CC(C)n1ncc2c(N)ncnc21
inactive: dose: 7.5 mg/kg/injection, schedule: Q01DX001 (ip), vehicle: saline 107 % of control | dose: 7.5 mg/kg/injection, schedule: Q04DX003 (ip), vehicle: saline 100 % of control | dose: 15.0 mg/kg/injection, schedule: Q01DX001 (ip), vehicle: saline 100 % of control | dose: 15.0 mg/kg/injection, schedule: Q04DX003 (ip), vehicle: saline 97 % of control | dose: 30.0 mg/kg/injection, schedule: Q01DX001 (ip), vehicle: saline 100 % of control | dose: 30.0 mg/kg/injection, schedule: Q04DX003 (ip), vehicle: saline 98 % of control

CC1=CC(=Nc2ccc(N(CCCl)CCCl)cc2)C=CC1=O
inactive: [6] 110 % of control

O=C(O)C(Br)CO (configuration not stated) (tested in a mixture with another compound)
inactive: dose: 100.0 mg/kg/injection, schedule: Q01DX001 (ip), vehicle: acetone 93 % of control | dose: 200.0 mg/kg/injection, schedule: Q01DX001 (ip), vehicle: acetone 95 % of control

C=CCOC(OCC=C)C(OCC=C)OCC=C
inactive: [3] 97 % of control | [4] 104 % of control

CNC(=O)ON=C1CCC(CC2CCCCC2)CC1 (configuration not stated)
inactive: [6] 100 % of control | [7] 91 % of control | [8] 92 % of control | dose: 200.0 mg/kg/injection, schedule: Q01DX009 (ip), vehicle: Klucel (hydroxypropylcellulose) (HPC) 96 % of control | dose: 200.0 mg/kg/injection, schedule: Q04DX003 (ip), vehicle: Klucel (hydroxypropylcellulose) (HPC) 94 % of control

C1CCN(CCCCN2CCCCC2)CC1
inactive: dose: 100.0 mg/kg/injection, schedule: Q01DX001 (ip), vehicle: saline 96 % of control | dose: 200.0 mg/kg/injection, schedule: Q01DX001 (ip), vehicle: saline 104 % of control | dose: 400.0 mg/kg/injection, schedule: Q01DX001 (ip), vehicle: saline 108 % of control

CC(=O)Nc1cc(NC(C)=O)cc([N+](=O)[O-])c1
inactive: dose: 50.0 mg/kg/injection, schedule: Q01DX009 (ip), vehicle: saline 96 % of control | dose: 100.0 mg/kg/injection, schedule: Q01DX009 (ip), vehicle: saline 105 % of control | dose: 100.0 mg/kg/injection, schedule: Q04DX003 (ip), vehicle: saline 94 % of control | dose: 200.0 mg/kg/injection, schedule: Q04DX003 (ip), vehicle: saline 102 % of control | dose: 400.0 mg/kg/injection, schedule: Q04DX003 (ip), vehicle: saline 100 % of control

COc1cc(C)c(/C=N/NC(=O)c2ccncc2)cc1C
inactive: dose: 100.0 mg/kg/injection, schedule: Q04DX002 (ip), vehicle: carboxymethylcellulose (CMC) 103 % of control | dose: 200.0 mg/kg/injection, schedule: Q04DX002 (ip), vehicle: carboxymethylcellulose (CMC) 96 % of control | dose: 400.0 mg/kg/injection, schedule: Q04DX002 (ip), vehicle: carboxymethylcellulose (CMC) 92 % of control

O=C1/C(=C/c2ccccn2)CCc2cc(Cl)ccc21
inactive: dose: 100.0 mg/kg/injection, schedule: Q04DX003 (ip), vehicle: carboxymethylcellulose (CMC) 93 % of control | dose: 200.0 mg/kg/injection, schedule: Q04DX003 (ip), vehicle: carboxymethylcellulose (CMC) 96 % of control | dose: 400.0 mg/kg/injection, schedule: Q04DX003 (ip), vehicle: carboxymethylcellulose (CMC) 96 % of control

Reference: PubChem BioAssay AID248 (DTP/NCI, 2004)
